Measured values from patent US9221827B2, “Antimicrobial compounds and methods of making and using the same” (Melinta Therapeutics, Inc., priority 2011, dated 2015).

Test system: Escherichia coli strain ATCC25922
Test: standard microdilution assay to determine minimum inhibitory concentrations (MICs)
Assay type: cell-based
Method in brief: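 Broth microdilution per CLSI (M7-A8/M100-S20), 100 μl final volume, with reference-strain quality control; MIC is the lowest inhibitory concentration. Scored "+"/"−" against a 16 micrograms/ml cutoff, "N/A" where unavailable.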

[1] = Escherichia coli strain ATCC25922, standard microdilution assay
[2] = Escherichia coli strain ATCC25922, microdilution

Row | Compound | E. coli ATCC25922 MIC [1] | E. coli ATCC25922 MIC [2]
1 | C[C@H](N)CCCc1cc(OC(F)(F)F)cc(-c2cc3cn(-c4ccc(CN)cc4)c(=O)nc3[nH]2)c1 [Compound 355] | − (a “−” indicates that the compound has an MIC value greater than 16 micrograms/ml) | 
2 | CC(C)(CN)CCc1ccc(F)c(-c2cc3cn(-c4ccc(CNCCCNC(=N)N)cc4)c(=O)nc3[nH]2)c1 [Compound 117] |  | + (a “+” indicates that the compound has an MIC value of 16 micrograms/ml or less)
3 | N=C(N)NCCCNCc1ccc(-n2cc3cc(-c4cc(CCC5(CN)CC5)cc(OC(F)(F)F)c4)[nH]c3nc2=O)cc1 [Compound 137] |  | + (a “+” indicates that the compound has an MIC value of 16 micrograms/ml or less)
4 | Cc1c(OC(F)F)cc(CCCCN)cc1-c1cc2cn(-c3ccc(CNCCCNC(=N)N)cc3)c(=O)nc2[nH]1 [Compound 237] |  | + (a “+” indicates that the compound has an MIC value of 16 micrograms/ml or less)
5 | N=C(N)NCCCNCc1ccc(-n2cc3cc(-c4cc(CCCCN)cc(-n5ccnc5)c4)[nH]c3nc2=O)cc1 [Compound 59] |  | + (a “+” indicates that the compound has an MIC value of 16 micrograms/ml or less)
6 | C[C@H](NCCCNC(=N)N)c1ccc(-n2cc3cc(-c4cc(CCCCN)cc(F)c4Cl)[nH]c3nc2=O)cc1 [Compound 67] |  | + (a “+” indicates that the compound has an MIC value of 16 micrograms/ml or less)
7 | CC(N)CCCc1cc(-c2cc3cn(-c4ccc(CN5CCCCC5=N)cc4)c(=O)nc3[nH]2)cc(C(F)(F)F)c1 (stereo not drawn) [Compound 366] | − (a “−” indicates that the compound has an MIC value greater than 16 micrograms/ml) | 
8 | C[C@H](N)c1ccc(-n2cc3cc(-c4cc(CCC5(CN)CC5)cc(SC(F)(F)F)c4)[nH]c3nc2=O)cc1 [Compound 358] | − (a “−” indicates that the compound has an MIC value greater than 16 micrograms/ml) | 
9 | C=CC(NCCCNC(=N)N)c1ccc(-n2cc3cc(-c4cc(CCCC(C)N)cc(SC(F)(F)F)c4)[nH]c3nc2=O)cc1 (stereo not drawn) [Compound 502] |  | + (a “+” indicates that the compound has an MIC value of 16 micrograms/ml or less)
10 | CCC[C@H](NCCCNC(=N)N)c1ccc(-n2cc3cc(-c4cc(CCC[C@H](C)N)cc(SC(F)(F)F)c4)[nH]c3nc2=O)cc1 [Compound 416] | + (a “+” indicates that the compound has an MIC value of 16 micrograms/ml or less) | 
11 | C[C@H](N)CCCc1cc(SC(F)(F)F)c(F)c(-c2cc3cn(-c4ccc([C@H](C)NCCCNC(=N)N)cc4)c(=O)nc3[nH]2)c1 [Compound 471] |  | + (a “+” indicates that the compound has an MIC value of 16 micrograms/ml or less)
12 | CCOc1cc(CCCCN)cc(-c2cc3cn(-c4ccc(CNCCCNC(=N)N)cc4)c(=O)nc3[nH]2)c1C(F)(F)F [Compound 229] |  | + (a “+” indicates that the compound has an MIC value of 16 micrograms/ml or less)
13 | CC(C)(CN)CCc1cc(F)c(Cl)c(-c2cc3cn(-c4ccc(CNCCCNC(=N)N)cc4)c(=O)nc3[nH]2)c1 [Compound 125] |  | + (a “+” indicates that the compound has an MIC value of 16 micrograms/ml or less)
14 | Cc1c(-c2cc3cn(-c4ccc(CNCCCNC(=N)N)cc4)c(=O)nc3[nH]2)cc(CCC[C@H](C)N)cc1C(C)C [Compound 446] | + (a “+” indicates that the compound has an MIC value of 16 micrograms/ml or less) | 
15 | NCCCCc1cc(OC(F)(F)F)cc(-c2cc3cn(-c4ccc(CNCCCN/C(N)=N\CCCF)cc4)c(=O)nc3[nH]2)c1 [Compound 47] |  | + (a “+” indicates that the compound has an MIC value of 16 micrograms/ml or less)
16 | CC(N)CCCc1cccc(-c2cc3cn(-c4ccc(C(C)NCCCNC(=N)N)cc4)c(=O)nc3[nH]2)n1 (stereo not drawn) [Compound 369] | + (a “+” indicates that the compound has an MIC value of 16 micrograms/ml or less) | 
17 | N=C(N)NCCCNCc1ccc(-n2cc3cc(-c4cc(C5CCC(CN)CC5)cc(Cl)c4F)[nH]c3nc2=O)cc1 (stereo not drawn) [Compound 450] | + (a “+” indicates that the compound has an MIC value of 16 micrograms/ml or less) | 
18 | C=C[C@H](NCCCNC(=N)N)c1ccc(-n2cc3cc(-c4cc(CCC[C@H](C)N)cc(SC(F)(F)F)c4)[nH]c3nc2=O)cc1 [Compound 473] |  | + (a “+” indicates that the compound has an MIC value of 16 micrograms/ml or less)
19 | CC(NCCCNC(=N)N)c1ccc(-n2cc3cc(-c4cc(CC5CCC(N)C5)cc(SC(F)(F)F)c4)[nH]c3nc2=O)cc1 (mixture of isomers) [Compound 420] | + (a “+” indicates that the compound has an MIC value of 16 micrograms/ml or less) | 
20 | NCCCCc1cc(-c2cc3cn(-c4ccc(CNCCCN=C(N)N)c(F)c4)c(=O)nc3[nH]2)cc(C(F)(F)F)c1 [Compound 80] |  | + (a “+” indicates that the compound has an MIC value of 16 micrograms/ml or less)
21 | CC(N)CCCc1cc(-c2cc3cn(-c4ccc(C5(NCCCNC(=N)N)CC5)cc4)c(=O)nc3[nH]2)cc(C(F)(F)F)c1 (stereo not drawn) [Compound 485] |  | + (a “+” indicates that the compound has an MIC value of 16 micrograms/ml or less)

Row | Compound | E. coli ATCC25922 MIC [1] | E. coli ATCC25922 MIC [2]
22 | CC(N)CCCc1cc(OC(F)(F)F)c(Cl)c(-c2cc3cn(-c4ccc(CNCCCNC(=N)N)cc4)c(=O)nc3[nH]2)c1 (stereo not drawn) [Compound 281] |  | + (a “+” indicates that the compound has an MIC value of 16 micrograms/ml or less)
23 | N=C(N)NCCCNCc1ccc(-n2cc3cc(-c4c(F)c(F)cc(CCCCN)c4F)[nH]c3nc2=O)cc1 [Compound 6] |  | + (a “+” indicates that the compound has an MIC value of 16 micrograms/ml or less)
24 | Cc1cc(CCCCN)cc(-c2cc3cn(-c4ccc(CNCCCNC(=N)N)cc4)c(=O)nc3[nH]2)c1C(F)(F)F [Compound 222] |  | + (a “+” indicates that the compound has an MIC value of 16 micrograms/ml or less)
25 | CN(CCCNC(=N)N)Cc1ccc(-n2cc3cc(-c4cc(CCCCN)cc(Cl)c4F)[nH]c3nc2=O)cc1 [Compound 378] | + (a “+” indicates that the compound has an MIC value of 16 micrograms/ml or less) | 
26 | CC(N)CCCc1cc(-c2cc3cn(-c4ccc(C(C)NCCCNC(=N)N)cc4)c(=O)nc3[nH]2)c(F)c(C(F)(F)F)c1 (stereo not drawn) [Compound 274] |  | + (a “+” indicates that the compound has an MIC value of 16 micrograms/ml or less)
27 | CC(C)(N)CCc1cc(OC(F)(F)F)cc(-c2cc3cn(-c4ccc(CNCCCNC(=N)N)cc4)c(=O)nc3[nH]2)c1 [Compound 255] |  | + (a “+” indicates that the compound has an MIC value of 16 micrograms/ml or less)
28 | Cc1c(-c2cc3cn(-c4ccc(CNCCCNC(=N)N)cc4)c(=O)nc3[nH]2)cc(CCCCN)cc1[N+](=O)[O-] [Compound 120] |  | + (a “+” indicates that the compound has an MIC value of 16 micrograms/ml or less)
29 | N=C(N)NCCCNCc1ccc(-n2cc3cc(-c4cc(C[S+]([O-])CCN)ccc4F)[nH]c3nc2=O)cc1 (stereo not drawn) [Compound 23] |  | + (a “+” indicates that the compound has an MIC value of 16 micrograms/ml or less)
30 | C=CC(NCCCNC(=N)N)c1ccc(-n2cc3cc(-c4cc(CCCC(C)N)cc(C(F)(F)F)c4)[nH]c3nc2=O)cc1 (stereo not drawn) [Compound 501] |  | + (a “+” indicates that the compound has an MIC value of 16 micrograms/ml or less)
31 | C[C@H](NCCCNC(=N)N)c1ccc(-n2cc3cc(-c4cc(CC[C@@H](C)N)cc(Cl)c4F)[nH]c3nc2=O)cc1 [Compound 411] | + (a “+” indicates that the compound has an MIC value of 16 micrograms/ml or less) | 
32 | C[C@@H](CN)OCc1cc(-c2cc3cn(-c4ccc(CNCCCNC(=N)N)cc4)c(=O)nc3[nH]2)cc(C(F)(F)F)c1 [Compound 314] |  | + (a “+” indicates that the compound has an MIC value of 16 micrograms/ml or less)
33 | C[C@H](NCCCNC(=N)N)c1ccc(-n2cc3cc(-c4cc(C5CCC(CN)CC5)cc(Cl)c4F)[nH]c3nc2=O)cc1 (stereo partly drawn) [Compound 451] | + (a “+” indicates that the compound has an MIC value of 16 micrograms/ml or less) | 
34 | N=C(N)NCCCNCc1ccc(-n2cc3cc(-c4cc(CC(O)CCN)cc(OC(F)(F)F)c4)[nH]c3nc2=O)cc1 (stereo not drawn) [Compound 252] |  | + (a “+” indicates that the compound has an MIC value of 16 micrograms/ml or less)
35 | CC(=O)NCCCNCc1ccc(-n2cc3cc(-c4cc(CCC[C@H](C)N)cc(Cl)c4F)[nH]c3nc2=O)cc1 [Compound 386] | − (a “−” indicates that the compound has an MIC value greater than 16 micrograms/ml) | 
36 | CCc1cc(CCCC(C)N)cc(-c2cc3cn(-c4ccc(CNCCCNC(=N)N)cc4)c(=O)nc3[nH]2)c1Cl (stereo not drawn) [Compound 283] |  | + (a “+” indicates that the compound has an MIC value of 16 micrograms/ml or less)
37 | C=CC[C@H](NCCCNC(=N)N)c1ccc(-n2cc3cc(-c4cc(CCC[C@H](C)N)cc(Cl)c4F)[nH]c3nc2=O)cc1 [Compound 472] |  | + (a “+” indicates that the compound has an MIC value of 16 micrograms/ml or less)
38 | CC(C)(N)CCCc1cc(SC(F)(F)F)cc(-c2cc3cn(-c4ccc(CNCCCNC(=N)N)cc4)c(=O)nc3[nH]2)c1 [Compound 303] |  | + (a “+” indicates that the compound has an MIC value of 16 micrograms/ml or less)
39 | NCCCCc1cc(OC(F)(F)F)c(Cl)c(-c2cc3cn(-c4ccc(CNCCCN=C(N)N)cc4)c(=O)nc3[nH]2)c1 [Compound 65] |  | + (a “+” indicates that the compound has an MIC value of 16 micrograms/ml or less)
40 | COC(CCCN)c1cc(OC(F)(F)F)cc(-c2cc3cn(-c4ccc(CNCCCNC(=N)N)cc4)c(=O)nc3[nH]2)c1 (stereo not drawn) [Compound 216] |  | + (a “+” indicates that the compound has an MIC value of 16 micrograms/ml or less)
41 | C[C@H](NCCCNC(=N)N)c1ccc(-n2cc3cc(-c4cc(CO[C@@H](C)CN)cc(SC(F)(F)F)c4)[nH]c3nc2=O)cc1 [Compound 327] |  | + (a “+” indicates that the compound has an MIC value of 16 micrograms/ml or less)
42 | N=C(N)NCCCNCc1ccc(-n2cc3cc(-c4cc(CS(=O)(=O)CCN)cc(OC(F)(F)F)c4)[nH]c3nc2=O)cc1 [Compound 16] |  | + (a “+” indicates that the compound has an MIC value of 16 micrograms/ml or less)
